pIC50: −log10 of the molar value.
What was measured:
Type in all cases: functional, cell-based
[1] = Cytotoxicity against human SGC7901 cells assessed as growth inhibition after 48 hrs by MTT assay; settings: SGC-7901, 48 h
KB = experiment: Cytotoxicity against human KB cells assessed as growth inhibition after 48 hrs by MTT assay
[2] = Cytotoxicity against human HT1080 cells assessed as growth inhibition after 48 hrs by MTT assay; settings: HT-1080, 48 h

SMILES	pIC50 [1]	pIC50 (KB)	pIC50 [2]
CC[C@H]1OC(=O)[C@H](C)[C@@H](O[C@H]2C[C@@](C)(OC)[C@@H](O)[C@H](C)O2)[C@H](C)[C@@H](O[C@@H]2O[C@H](C)C[C@H](N(C)CCN(C)[C@H]3C[C@@H](C)O[C@@H](O[C@@H]4[C@@H](C)[C@H](O[C@H]5C[C@@](C)(OC)[C@@H](O)[C@H](C)O5)[C@@H](C)C(=O)O[C@H](CC)[C@@](C)(O)[C@H](O)[C@@H](C)/C(=N\OCc5ccccc5)[C@H](C)C[C@@]4(C)O)[C@@H]3O)[C@H]2O)[C@](C)(O)C[C@@H](C)/C(=N/OCOCCOC)[C@H](C)[C@@H](O)[C@]1(C)O	< 4.00	< 4.00	< 4.00
CC[C@H]1OC(=O)[C@H](C)[C@@H](O[C@H]2C[C@@](C)(OC)[C@@H](O)[C@H](C)O2)[C@H](C)[C@@H](O[C@@H]2O[C@H](C)C[C@H](N(C)C(=O)CN(C)[C@H]3C[C@@H](C)O[C@@H](O[C@@H]4[C@@H](C)[C@H](O[C@H]5C[C@@](C)(OC)[C@@H](O)[C@H](C)O5)[C@@H](C)C(=O)O[C@H](CC)[C@@](C)(O)[C@H](O)[C@@H](C)/C(=N\OCOCCOC)[C@H](C)C[C@@]4(C)O)[C@@H]3O)[C@H]2O)[C@](C)(OC)C[C@@H](C)C(=O)[C@H](C)[C@@H](O)[C@]1(C)O	< 4.00	< 4.00	< 4.00
CC[C@H]1OC(=O)[C@H](C)[C@@H](O)[C@H](C)[C@@H](O[C@@H]2O[C@H](C)C[C@H](N(C)C(=O)CN(C)[C@H]3C[C@@H](C)O[C@@H](O[C@@H]4[C@@H](C)[C@H](O[C@H]5C[C@@](C)(OC)[C@@H](O)[C@H](C)O5)[C@@H](C)C(=O)O[C@H](CC)[C@@](C)(O)[C@H](O)[C@@H](C)/C(=N\OCOCCOC)[C@H](C)C[C@@]4(C)O)[C@@H]3O)[C@H]2O)[C@](C)(OC)C[C@@H](C)C(=O)[C@H](C)[C@@H](O)[C@]1(C)O	< 4.00	< 4.00	< 4.00
CCCCCCCCO/N=C1/[C@H](C)C[C@@](C)(O)[C@H](O[C@@H]2O[C@H](C)C[C@H](N(C)CCN(C)[C@H]3C[C@@H](C)O[C@@H](O[C@@H]4[C@@H](C)[C@H](O[C@H]5C[C@@](C)(OC)[C@@H](O)[C@H](C)O5)[C@@H](C)C(=O)O[C@H](CC)[C@@](C)(O)[C@H](O)[C@@H](C)/C(=N\OCCCCCCCC)[C@H](C)C[C@@]4(C)O)[C@@H]3O)[C@H]2O)[C@@H](C)[C@H](O[C@H]2C[C@@](C)(OC)[C@@H](O)[C@H](C)O2)[C@@H](C)C(=O)O[C@H](CC)[C@@](C)(O)[C@H](O)[C@H]1C	< 4.00	< 4.00	< 4.00
CC[C@H]1OC(=O)[C@H](C)[C@@H](O)[C@H](C)[C@@H](O[C@@H]2O[C@H](C)C[C@H](N(C)CCN(C)[C@H]3C[C@@H](C)O[C@@H](O[C@@H]4[C@@H](C)[C@H](O[C@H]5C[C@@](C)(OC)[C@@H](O)[C@H](C)O5)[C@@H](C)C(=O)O[C@H](CC)[C@@](C)(O)[C@H](O)[C@@H](C)C(=O)[C@H](C)C[C@@]4(C)OC)[C@@H]3O)[C@H]2O)[C@](C)(OC)C[C@@H](C)C(=O)[C@H](C)[C@@H](O)[C@]1(C)O	< 4.00	4.01	< 4.00
CC[C@H]1OC(=O)[C@H](C)[C@@H](O[C@H]2C[C@@](C)(OC)[C@@H](O)[C@H](C)O2)[C@H](C)[C@@H](O[C@@H]2O[C@H](C)C[C@H](N(C)CC(=O)N(C)[C@H]3C[C@@H](C)O[C@@H](O[C@@H]4[C@@H](C)[C@H](O[C@H]5C[C@@](C)(OC)[C@@H](O)[C@H](C)O5)[C@@H](C)C(=O)O[C@H](CC)[C@@](C)(O)[C@H](O)[C@@H](C)C(=O)[C@H](C)C[C@@]4(C)OC)[C@@H]3O)[C@H]2O)[C@](C)(OC)C[C@@H](C)C(=O)[C@H](C)[C@@H](O)[C@]1(C)O	4.79	< 4.00	4.51
CC[C@H]1OC(=O)[C@H](C)[C@@H](O[C@H]2C[C@@](C)(OC)[C@@H](O)[C@H](C)O2)[C@H](C)[C@@H](O[C@@H]2O[C@H](C)C[C@H](N(C)CCN(C)[C@H]3C[C@@H](C)O[C@@H](O[C@@H]4[C@@H](C)[C@H](O[C@H]5C[C@@](C)(OC)[C@@H](O)[C@H](C)O5)[C@@H](C)C(=O)O[C@H](CC)[C@@](C)(O)[C@H](O)[C@@H](C)/C(=N\OCc5cc(OC)c(OC)c(OC)c5)[C@H](C)C[C@@]4(C)OC)[C@@H]3O)[C@H]2O)[C@](C)(OC)C[C@@H](C)/C(=N/OCc2cc(OC)c(OC)c(OC)c2)[C@H](C)[C@@H](O)[C@]1(C)O	4.70	4.70	4.99
CC[C@H]1OC(=O)[C@H](C)[C@@H](O[C@H]2C[C@@](C)(OC)[C@@H](O)[C@H](C)O2)[C@H](C)[C@@H](O[C@@H]2O[C@H](C)C[C@H](N(C)CCN(C)[C@H]3C[C@@H](C)O[C@@H](O[C@@H]4[C@@H](C)[C@H](O[C@H]5C[C@@](C)(OC)[C@@H](O)[C@H](C)O5)[C@@H](C)C(=O)O[C@H](CC)[C@@](C)(O)[C@H](O)[C@@H](C)/C(=N\OCc5cc(OC)c(OC)c(OC)c5)[C@H](C)C[C@@]4(C)O)[C@@H]3O)[C@H]2O)[C@](C)(OC)C[C@@H](C)C(=O)[C@H](C)[C@@H](O)[C@]1(C)O	4.76	4.52	4.38
CC[C@H]1OC(=O)[C@H](C)[C@@H](O[C@H]2C[C@@](C)(OC)[C@@H](O)[C@H](C)O2)[C@H](C)[C@@H](O[C@@H]2O[C@H](C)C[C@H](N(C)CCN(C)[C@H]3C[C@@H](C)O[C@@H](O[C@@H]4[C@@H](C)[C@H](O[C@H]5C[C@@](C)(OC)[C@@H](O)[C@H](C)O5)[C@@H](C)C(=O)O[C@H](CC)[C@@](C)(O)[C@H](O)[C@@H](C)/C(=N\OCOCCOC)[C@H](C)C[C@@]4(C)O)[C@@H]3O)[C@H]2O)[C@](C)(O)C[C@@H](C)[C@H](O)[C@H](C)[C@@H](O)[C@]1(C)O	4.34	4.42	4.66
CC[C@H]1OC(=O)[C@H](C)[C@@H](O[C@H]2C[C@@](C)(OC)[C@@H](O)[C@H](C)O2)[C@H](C)[C@@H](O[C@@H]2O[C@H](C)C[C@H](N(C)CC(=O)N(C)[C@H]3C[C@@H](C)O[C@@H](O[C@@H]4[C@@H](C)[C@H](O[C@H]5C[C@@](C)(OC)[C@@H](O)[C@H](C)O5)[C@@H](C)C(=O)O[C@H](CC)[C@@](C)(O)[C@H](O)[C@@H](C)/C(=N/OCOCCOC)[C@H](C)C[C@@]4(C)O)[C@@H]3O)[C@H]2O)[C@](C)(O)C[C@@H](C)/C(=N/OCOCCOC)[C@H](C)[C@@H](O)[C@]1(C)O	4.88	4.54	4.48
CC[C@H]1OC(=O)[C@H](C)[C@@H](O[C@H]2C[C@@](C)(OC)[C@@H](O)[C@H](C)O2)[C@H](C)[C@@H](O[C@@H]2O[C@H](C)C[C@H](N(C)CCN(C)[C@H]3C[C@@H](C)O[C@@H](O[C@@H]4[C@@H](C)[C@H](O[C@H]5C[C@@](C)(OC)[C@@H](O)[C@H](C)O5)[C@@H](C)C(=O)O[C@H](CC)[C@@](C)(O)[C@H](O)[C@@H](C)/C(=N\OCOCCOC)[C@H](C)C[C@@]4(C)O)[C@@H]3O)[C@H]2O)[C@](C)(O)C[C@@H](C)/C(=N/OCOCCOC)[C@H](C)[C@@H](O)[C@]1(C)O	< 4.00	5.26	5.46
CC[C@H]1OC(=O)[C@H](C)[C@@H](O[C@H]2C[C@@](C)(OC)[C@@H](O)[C@H](C)O2)[C@H](C)[C@@H](O[C@@H]2O[C@H](C)C[C@H](N(C)CCN(C)[C@H]3C[C@@H](C)O[C@@H](O[C@@H]4[C@@H](C)[C@H](O[C@H]5C[C@@](C)(OC)[C@@H](O)[C@H](C)O5)[C@@H](C)C(=O)O[C@H](CC)[C@@](C)(O)[C@H](O)[C@@H](C)C(=O)[C@H](C)C[C@@]4(C)OC)[C@@H]3O)[C@H]2O)[C@](C)(O)C[C@@H](C)[C@H](O)[C@H](C)[C@@H](O)[C@]1(C)O	4.40	4.55	4.69
CCCCCO/N=C1/[C@H](C)C[C@@](C)(OC)[C@H](O[C@@H]2O[C@H](C)C[C@H](N(C)CCN(C)[C@H]3C[C@@H](C)O[C@@H](O[C@@H]4[C@@H](C)[C@H](O[C@H]5C[C@@](C)(OC)[C@@H](O)[C@H](C)O5)[C@@H](C)C(=O)O[C@H](CC)[C@@](C)(O)[C@H](O)[C@@H](C)/C(=N\OCCCCC)[C@H](C)C[C@@]4(C)OC)[C@@H]3O)[C@H]2O)[C@@H](C)[C@H](O[C@H]2C[C@@](C)(OC)[C@@H](O)[C@H](C)O2)[C@@H](C)C(=O)O[C@H](CC)[C@@](C)(O)[C@H](O)[C@H]1C	4.51	< 4.00	4.27
CC[C@H]1OC(=O)[C@H](C)[C@@H](O[C@H]2C[C@@](C)(OC)[C@@H](O)[C@H](C)O2)[C@H](C)[C@@H](O[C@@H]2O[C@H](C)C[C@H](N(C)CCN(C)[C@H]3C[C@@H](C)O[C@@H](O[C@@H]4[C@@H](C)[C@H](O[C@H]5C[C@@](C)(OC)[C@@H](O)[C@H](C)O5)[C@@H](C)C(=O)O[C@H](CC)[C@@](C)(O)[C@H](O)[C@@H](C)C(=O)[C@H](C)C[C@@]4(C)OC)[C@@H]3O)[C@H]2O)[C@](C)(O)C[C@@H](C)[C@H](N)[C@H](C)[C@@H](O)[C@]1(C)O	4.24	4.58	4.75
CC[C@H]1OC(=O)[C@H](C)[C@@H](O[C@H]2C[C@@](C)(OC)[C@@H](O)[C@H](C)O2)[C@H](C)[C@@H](O[C@@H]2O[C@H](C)C[C@H](N(C)CC(=O)N(C)[C@H]3C[C@@H](C)O[C@@H](O[C@@H]4[C@@H](C)[C@H](O[C@H]5C[C@@](C)(OC)[C@@H](O)[C@H](C)O5)[C@@H](C)C(=O)O[C@H](CC)[C@@](C)(O)[C@H](O)[C@@H](C)C(=O)[C@H](C)C[C@@]4(C)O)[C@@H]3O)[C@H]2O)[C@](C)(O)C[C@@H](C)C(=O)[C@H](C)[C@@H](O)[C@]1(C)O	4.58	< 4.00	< 4.00
